Measurements: patent US11998600B2, “Enhancing the therapeutic activity of an immune checkpoint inhibitor” (MaineHealth, priority 2015, dated 2024)

Experiments:
[1] = tested on: β3-integrin; experiment: β3-integrin phosphorylation in endothelial cells attached to collagen peptides, Western blot; format: cell-based, human; settings: PP2 10 μM vs DMSO; FIG. 7E
Method: (§1) Endothelial cells (HUVECs or HRMVECs) were incubated in serum free media with 1 mM MgCl2, 0.2 mM MnCl2 in the presence of a Src inhibitor, PP2, (10 μM) a P38MAPK inhibitor, SB202190 (10 μM) or vehicle only (DMSO) for 10 min at 37° C. Treated cells were then seeded on to immobilized P-1 and P-2 and lysates were collected at 15 min.
(§2) Whole cell and CAM tissue lysates were collected in RIPA buffer supplemented with 1× protease inhibitor and 1× phosphatase inhibitor and were run on polyacrylamide gels using denaturing conditions. Prior to loading the gels, 6× sample buffer was added to each of the lysates (final concentration 1×) and boiled for five minutes. Twenty to 50 μg of total protein were loaded into each lane. For detection of proteins larger than 50 kD, 10% gels were used; for proteins smaller than 50 kD 15% gels were used. […] Western blot bands were quantified using Image J software based on pixel intensity.
(§3) Because both RGD containing peptides bind αvβ3 coupled with the differential effect of these peptides on angiogenesis and inflammation, it was determined whether the RGD peptides differentially altered αvβ3-mediated signaling. […] Therefore, the differential phosphorylation of these protein kinases following the early mechanical-mediated interactions with the RGD containing collagen peptides was assessed. […]

[2] = tested on: P38MAPK; experiment: P38MAPK phosphorylation in HUVECs attached to collagen peptides, Western blot; format: cell-based, human; settings: PP2 10 μM vs DMSO; FIG. 7F
Method: as §1
as §2, with “used. Gels were run at 60 volts (v) until the dye front passed through the stacking gel, and then the voltage was increased to 100V for the remainder of the separation. Precision Plus protein standards (Bio-Rad) were used to visualize migration. Protein was transferred to nitrocellulose membranes using a wet tank system and blocked for 1 h using 10% non-fat dried milk in tris-buffered saline with 0.01% Tween-20 (TBS-T).” for “used.”, “intensity. […]” for “intensity.”

[3] = tested on: YAP; experiment: Nuclear YAP in HRMVEC stimulated with soluble peptide, with Src or P38MAPK inhibitor; format: cell-based, human; settings: inhibitors 10 μM; FIGS. 8E and 8F
[4] = tested on: chick chorioallantoic membrane (CAM); experiment: Chick CAM angiogenesis assay, induction by RGD collagen peptides; format: in vivo; settings: inhibitor SB202190 10 μM vs DMSO control; FIG. 6F
Method: (§4) The chick chorioallantoic membrane (CAM) assays were carried out with some modifications (19). For all experiments CAMs of 10-day-old chick embryos obtained from Charles River (North Franklin, CT) were separated from the shell membrane. Filter discs either non-treated (inflammation assays) pretreated (angiogenesis assays) with cortisone acetate (3.0 mg/ml) containing RPMI only or FGF-2 (40 ng). CAMs were either non-treated or treated topically with Mab XL313, XL166 or a non-specific control antibody (10 μg/embryo every 24 h for three consecutive treatments). […] At the end of the incubation period the embryos were sacrificed and the CAM tissues were analyzed. Angiogenesis was quantified by counting the number of angiogenic branching blood vessels within the area of the filter disc. The angiogenic index was determined by subtracting the mean number of blood vessel branch points from untreated CAMs from each experimental condition. Eight to twelve embryos were used per condition and experiments were repeated at least three times.
To examine this possibility, the effects of the RGDKGE (SEQ ID NO. 1) containing collagen peptide on angiogenesis and inflammation in the chick CAM were assessed.

[5] = tested on: chick chorioallantoic membrane (CAM); experiment: Chick CAM inflammation assay, FGF-2 induced, antibody treatment; format: in vivo; settings: chick CAM, FGF-2 stimulated; vs no treatment or control antibody; FIG. 3E
Method: as §4, with “Eight to twelve embryos were used per condition and experiments were repeated at least three times.” left out
The chick CAM has been routinely used to assess inflammation and granulation tissue formation, which are largely dependent on infiltration of chick heterophils (the avian equivalent of neutrophils), macrophages and activated fibroblasts (36,37). To study the potential differential biological impact of RGD epitopes, FGF-2 induced inflammation was examined by carrying out similar experiments in the absence of cortisone acetate and quantifying CAM thickening. […]

[6] = tested on: HRMVEC; experiment: Cell proliferation assay, HRMVEC; format: cell-based, human; settings: peptide 100 ng/ml, 24 hours; FIG. 8D
Method: (§5) HUVECs (WT, shYAP1 or control transfected) or HRMVECs were plated at 2,000 cells per well with complete EGM-2 media containing 2.0% FBS in the absence or presence of P-1, P-2 or P-C (100 ng/ml) and allowed to grow for 24 hours. Cell growth was monitored using a BrdU or MMT assay kits according to manufacturer's instructions. All assays were completed at least three times in triplicate wells.

[7] = tested on: HUVEC; experiment: Cell proliferation assay, HUVEC; format: cell-based, human; settings: peptide 100 ng/ml, 24 hours; FIG. 8C
Method: as §5

[8] = tested on: chick chorioallantoic membrane (CAM); experiment: Chick CAM inflammation assay, induction by RGD collagen peptides; format: in vivo; settings: chick CAM, no cortisone acetate; FIG. 5D
Method: as §4
The effects of the soluble RGD containing collagen peptides on inflammation were examined.

[9] = tested on: Fak; experiment: Fak phosphorylation in endothelial cells attached to collagen peptides; format: cell-based, human; settings: serum free conditions
Method: as §2, with “used. Gels were run at 60 volts (v) until the dye front passed through the stacking gel, and then the voltage was increased to 100V for the remainder of the separation. Precision Plus protein standards (Bio-Rad) were used to visualize migration.” for “used.”
as §3

[10] = tested on: human dermal fibroblasts; experiment: Cell adhesion to immobilized RGD collagen peptides, HDF; format: cell-based; settings: peptides immobilized 100 μg/ml; FIG. 1D
Method: (§6) RGD peptides (P-1, P-2, P-3, P-4, P-5, and P-C) were immobilized (100 μg/ml) to wells. HUVEC, HMVEC, HRMVEC, and HDF cells were suspended in adhesion buffer (RPMI containing 1 mM MgCl2, 0.2 mM MnCl2 and 0.5% BSA) and 1×10^5 cells were seeded into the wells in the presence or absence of P4C10, LM609, P1F6 or control antibodies (100 μg/ml). Cells were allowed to attach for 25 min at 37° C. Media containing non-attached cells was aspirated and attached cells were washed with PBS and stained with crystal violet. Cell adhesion was quantified by measuring the optical density of eluted dye. Adhesion assays were completed at least three times with triplicate wells.

[11] = tested on: human retinal microvascular endothelial cells (HRMVEC); experiment: Cell adhesion to immobilized RGD collagen peptides, HRMVEC; format: cell-based; settings: peptides immobilized 100 μg/ml; FIG. 1C
Method: as §6

[12] = tested on: human umbilical vein endothelial cell (HUVEC); experiment: Cell adhesion to immobilized RGD collagen peptides, HUVEC; format: cell-based; settings: peptides immobilized 100 μg/ml; 25 min at 37° C; FIG. 1A
Method: as §6

[13] = tested on: human microvascular endothelial cells (HMVEC); experiment: Cell adhesion to immobilized RGD collagen peptides, HMVEC; format: cell-based; settings: peptides immobilized 100 μg/ml; FIG. 1B
Method: as §6

[14] = tested on: endothelial cells in which YAP was knocked down; experiment: Cell proliferation assay, endothelial cells transduced with YAP specific shRNA; format: cell-based, human; settings: soluble peptide (FIG. 8H) or VEGF 50 ng/ml (FIG. 8I)
Method: as §5
Raw cells were transfected with 1 μg of HuSH shRNA plasmids for collagen type I, alpha 2 using Amaxa cell line nucleofector kit V (program #T024). Constructs expressing 21-nucleotide short hairpin RNAs (shRNA) targeting human YAP (shYAP) or non-targeting control (shNT, Sigma-Aldrich, SHC002) were used. Humantargeting shYAP1 lentiviral shRNA was obtained from the Thermo Scientific RNAi consortium (TRCN0000107625). Constructs were packaged into lentivirus, pseudotyped with the vesicular stomatitis virus glycoprotein. Transduction was performed by incubating cells with lentivirus, and stably transduced cells were subsequently used for studies. All cell lines were verified by morphology and mouse and human YAP-specific PCR. […] Endothelial cells were certified mycoplasma-negative by PCR (Lonza), and primary cell cultures were used within the indicated passage numbers. Cells were transduced and selected using puromycin.
Endothelial cells with YAP specific or non-specific shRNAs were transduced.

Molecule: CC(C)(C)n1nc(-c2ccc(Cl)cc2)c2c(N)ncnc21 [PP2, reference compound]
- β3 phosphorylation following binding to collagen peptide P-2, with inhibitor [1]: reduced
- P38MAPK phosphorylation following binding to collagen peptide P-2, with inhibitor [2]: reduced
- reduction of nuclear YAP accumulation in P-2 stimulated endothelial cells as compared to control [3]: approximately 50%

Molecule: Oc1ccc(-c2nc(-c3ccncc3)c(-c3ccc(F)cc3)[nH]2)cc1 [SB202190, reference compound]
- reduction of nuclear YAP accumulation in P-2 stimulated endothelial cells as compared to control [3]: approximately 50%
- effect on P-2 induced angiogenesis in the chick CAM [4]: reduced

Molecule: CC(=O)OCC(=O)[C@@]1(O)CC[C@H]2[C@@H]3CCC4=CC(=O)CC[C@]4(C)[C@H]3C(=O)C[C@@]21C [cortisone acetate, reference compound]
- reduction of CAMs exhibiting inflammation (thickening) [5]: greater than 80%

Molecule: KGDRGDAPG [Mab P-1, Synthetic RGDAPG containing collagen type-I peptide, Colla1 742-750; made with flanking cysteines (…)]
- HRMVEC growth with soluble peptide [6]: minimal effect
- HUVEC growth with soluble peptide [7]: minimal effect
- CAM inflammation following stimulation with peptide [8]: Minimal evidence of tissue inflammation
- Fak phosphorylation following ligation of peptide [9]: Minimal Fak phosphorylation

Molecule: QGPSGAPGE [P-C, reference compound]
- HDF adhesion to immobilized peptides [10]: failed to support interactions
- HRMVEC adhesion to immobilized peptides [11]: failed to support interactions
- CAM inflammation following stimulation with peptide [8]: Minimal evidence of tissue inflammation
- HUVEC adhesion to immobilized peptides [12]: failed to support adhesion
- HMVEC adhesion to immobilized peptides [13]: failed to support interactions

Molecule: RGPRGDQGP [Mab P-5, Synthetic RGD containing collagen type-I peptide, Colla2 819-827 (…)]
- HUVEC adhesion to immobilized peptides [12]: highest levels of adhesion

Molecule: VEGF
- endothelial cell growth in YAP knock down cells [14]: enhanced growth
